Patent US20190144368A1, “Compounds and compositions for biofilm prevention” (INHIBIO AS, priority 2016, published 2019)

What was measured:
[1] = NMR of cyclohexane-1,3-dione in aqueous solution (keto-enol tautomerism); type: physicochemical; conditions: NMR-data
Description: In one embodiment, the compounds of the composition are able to undergo keto-enol tautomerism. Particularly 1,3-cyclodions, such as 1,3-cyclohexanediones, particularly such diones wherein neither or maximum one substituents are present in the C-2 position, have been found favourable as they can undergo keto-enol tautomerism. NMR-data of cyclohexane-1,3-dione support that in aqueous solution this compound exists in a highly enolised form where electrons are delocalised between the C-1-oxygen/C-1, C-2 and C-3/C-3-oxygen thereby rendering the C-2 methylene protons relatively acidic. […] It is believed that the acidity of the C-2 protons affect the solubility of the compound, providing a higher solubility than e.g. similar 1,4-carbocyclic compounds.

[2] = system: Salmonella (one strain); experiment: Effect of increased temperature on 1,3-cyclohexanedione: biofilm formation after heating the solution; type: cell-based; conditions: 72 hours at 20 °C
Procedure: The experiment was performed using 1,3-cyclohexanedione at a concentration of 1 mg/ml. One strain of Salmonella was used in this study. All strains were stored at −80° C. in BHI (Difco, BD, Franklin Lakes, N.J., USA) supplemented […] with 15% glycerine (Merck KGaA, Darmstadt, Germany) and were recovered on blood agar at 37.0±1.0° C. The bacterial culture was transferred into LB broth and was incubated statically overnight at 37.0±1.0° C. to obtain an overnight working culture. 1,3-cyclohexanedione was diluted in LB wo/NaCl at a concentration of 1 mg/ml and divided into 4 tubes. The tubes were heated, for two minutes, to 80° C., 90° C., 100° C. and the last tube was not heated and included as a control. 100 μl from each tube was added to a sterile 96-wells polystyrene microtiter plates (Nunc, Nuncleon, Roskilde, Denmark) together with 30 μl bacterial culture or 30 μl LB^wo/NaCl in the case of the blank controls. The plates were incubated for 72 hours at 20° C. The plate was emptied and washed twice using 200 μl tap water in each well each time. This was followed by the addition of 140 μl 1% Crystal violet to each well and, after 30 minutes, the plate was again emptied and washed 3 times using 200 μl tap water. 140 μl etanol:acetone 70:30 was added and OD595 was measured after 10 minutes. For each strain, the result was calculated by subtracting the median OD595 of the three parallels of the control (test broth only) from the median OD595 of the three parallels of sample. At least two experiments were performed and the average was estimated.

[3] = system: Gram positive bacteria (three Staphylococcus aureus strains); experiment: Biofilm formation in polystyrene microtiter plates (crystal violet, OD595), Gram positive bacteria; type: cell-based; conditions: one day at 37 °C
Procedure: All experiments were performed by using sterile 96-wells polystyrene microtiter plates (Nunc, Nuncleon, Roskilde, Denmark) under conditions promoting biofilm formation by the different bacterial genera. The Inhibio compound preparations of the invention; 1,3-cyclohexanedione, 1,4-cyclohexanedione, cyclopentanone, 5-ethylcyclohexane-1,3-dione and 5-methyl-1,3 cyclohexanedione 98% were solved directly in Tryptic Soy Broth (TSB) 1+1 or Liquid Microbiology Broth (LB) broth without NaCl (LB^wo/NaCl) to obtain the test concentrations, i.e. from 1 mg/ml to 10 mg/ml.
Three Staphylococcus aureus strains of animal origin were used in this study. All strains were stored at −80° C. in Brain Heart Infusion Broth (BHI) (Difco, BD, Franklin Lakes, N.J., USA) supplemented with 15% glycerine (Merck KGaA, Darmstadt, Germany) and were recovered on blood agar at 37.0±1.0° C. The bacterial cultures were then transferred into TSB and were incubated statically overnight at 37.0±1.0° C. to obtain an overnight working culture. A total of 2 μl of this suspension was transferred to each 96 wells of polystyrene microtiter plates (Nunc, Nuncleon, Roskilde, Denmark) containing 198 μl TSB 1+1 with dissolved Inhibio compounds in the following concentrations: 0 mg/ml, 1 mg/ml and 10 mg/ml for 1,3-cyclohexanedione; 0 mg/ml and 10 mg/ml for 1,4-cyclohexanedione; and 0 mg/ml, 1 mg/ml, 2 mg/ml and 10 mg/ml for 5-ethylcyclohexane-1,3-dione and 5-Methyl-1,3-cyclohexanedione in the total amount of broth. Three parallels of each strain were used and the microtiter plates were incubated statically for one day, at 37±1.0° C. After incubation, OD595 was measured in a microplate photometer (Multiscan EX; Thermo Fisher Scientific Inc, Waltham, Mass., USA) before the plates were gently washed three times with 290 μl tap water. The plates were dried in room temperature before addition of 220 μl 1% crystal violet (Sigma-Aldrich, St. Louis, Mo., USA). After 30 minutes incubation in room temperature, the plates were washed three times with tap water before the addition of 220 μl ethanol:acetone (70:30 w:w) to dissolve the bound dye. The plates were incubated for 10 minutes in room temperature before OD595 was measured after the bound dye was dissolved using ethanol:acetone. For each strain, the result was calculated by subtracting the median OD595 of the three parallels of the control (test broth only) from the median OD595 of the three parallels of sample. Further, the average result of all three Gram positive strains included in the study were calculated. Three independent experiments were performed and the average was evaluated.

In the case of O=C1CCCC(=O)C1 [1,3-cyclohexanedione], the stability of tautomers [1] was “stable at least over one day”, the “decrease in biofilm formation compared to the control” value (shortened to “decrease … to the control”) ([2]; 1 mg/ml solution heated to 80 °C for two minutes) was 38% and the “decrease … to the control” value ([2]; 1 mg/ml solution heated to 90 °C for two minutes) was 40%. For the same compound, the “decrease … to the control” value ([2]; 1 mg/ml solution heated to 100 °C for two minutes) was 28%, the “decrease … to the control” value ([2]; 1 mg/ml unheated solution) was 46% and the “decrease in biofilm formation, percentage of the control” value ([3]; 1 mg/ml) was 74%. For the same compound, the “decrease in biofilm formation, percentage of the control” value ([3]; 10 mg/ml) was 98%.
